Data: patent US20260098007A1, “Compounds and Their Use in Filtering Ultraviolet and/or High-Energy Visible Light” (Soliome Inc., priority 2022, published 2026)
Where a SMILES comes first, the peptide text is derived from it. [ ]: non-standard residue; d: D form. Kyn = Nc1ccccc1C(=O)C[CH](N)C(=O)O

Tests used:
[1] = Absorbance spectrum (ultraviolet-visible spectroscopy, diode array detector); type: physicochemical; settings: for absorbance region (in words): FIG. 1 and 2
Method: High pressure liquid chromatography: Samples were suspended in ethanol (Sigma Aldrich 103343081, CAS 64-17-5) and injected onto a reverse phase base deactivated silica C-18 column, […], 150×4.6 mm (Hypersil 9867). This column was temperature controlled at 35° C. using a Shimadzu CTO-10A column oven. Samples were injected with a Shimadzu SIL-10AD VP auto injector. The program was run using a Shimadzu LC1-20AD pump system, and detection was monitored with ultraviolet-visible spectroscopy from 200 to 700 nm using a Shimadzu SPD-M20A diode array detector.

[2] = OxiSelect Hydroxyl Radical Antioxidant Capacity (HORAC) Activity Assay; type: biochemical; settings: for antioxidant potential (HORAC) compared with gallic acid: result in words
Source text: An OxiSelect Hydroxyl Radical Antioxidant Capacity (HORAC) Activity Assay (Cell Biolabs Inc. catalog #STA-346-T) was used to determine the antioxidant potential of compound 4 (butyl 4-(2-aminophenyl)-2-(4-(2-aminophenyl)-2-butyramido-4-oxobutanamido)-4-oxobutanoate) following the manufacturer's protocol. Gallic Acid (GA) was used as antioxidant Calibrator: The HORAC assay was used to evaluate the application of the compounds of the invention as antioxidant.
A small amount of compound 4 was resuspended in assay diluent and the concentration determined using the extinction coefficient previously determined at 368 nm (6070 M^−1 cm^−1). The concentration of the stock solution was 624 μM. Three concentrations of the compound were tested in the assay: 468 μM, 312 μM, and 156 μM. The assay was run in a clear bottomed 96-well plate using a Molecular Devices SpectraMax M2 with an excitation wavelength of 480 nm and an emission wavelength of 530 nm. The emission wavelength cutoff was set to 515 nm. The photomultiplier sensitivity set to medium. The plate was read once a minute for 60 minutes.
Compounds 42, 43, 44, and 46, were tested for their antioxidant capacity as described as previously described using an OxiSelect Hydroxyl Radical Antioxidant Capacity (HORAC) Activity Assay (Cell Biolabs Inc. catalog #sta-346-T).

[3] = Determination of maximal UV absorbance, extinction coefficients and critical wavelengths (UV visible spectroscopy); type: physicochemical; settings: for peak absorbance: UV visible spectroscopy, diluted in ethanol; for critical wavelength: in vitro, 90% of the total absorbance integrated from 290 to 400 nm
Method: Extinction coefficients were determined by measuring the dry mass of each compounds and diluting it serially in ethanol (CAS […]). A series of concentrations were tested with UV visible spectroscopy.
In vitro critical wavelengths were determined by integrating the total absorbance from 290 to 400 nm and finding the region under that curve from higher energy to lower energy that is equal to 90% of the total absorbance, similar to that described by Diffey B. L., et al. J. Am. Acad. Dermatol. 2000, 43, 1024-1035.

skin = test: Skin protection against damage by UV (erythema); type: in vivo; settings: 10% (w/w) solution at 2 mg/cm^2 on skin, Sperti Sun Lamp 20 cm for 10 min, vs unprotected skin
Method: To test the protective capability of this class of compounds against damage to skin by UV, a 10% (w/w) solution of compounds was applied to skin at 2 mg/cm^2 and allowed to dry for 15 minutes. UV light was introduced using a […] Sun Lamp (model Miami P107). The application area on the skin was held facing the lamp at a distance of 20 cm for 10 min.

CCCC(=O)Nc1ccccc1C(=O)CC(NC(C)=O)C(=O)NC(CC(=O)c1ccccc1NC(=O)CCC)C(=O)OC (centres unmarked) [Compound 2, Methyl 2-(2-acetamido-4-(2-butyramidophenyl)-4-oxobutanamido)-4-(2-butyramidophenyl)-4-oxobutanoate]
absorbance region (in words) [1]: strong absorbance in the UVB region

Nc1ccccc1C(=O)CC(NC(=O)CCCC(=O)O)C(=O)O (centres unmarked) [Compound 46, 5-((3-(2-aminophenyl)-1-carboxy-3-oxopropyl)amino)-5-oxopentanoic acid]
antioxidant potential (HORAC) compared with gallic acid [2]: equal, or greater than, gallic acid

COC(=O)C(CC(=O)c1ccccc1N)NC(=O)C[N+](C)(C)C (centres unmarked) [Compound 43, 2-((4-(2-aminophenyl)-1-methoxy-1,4-dioxobutan-2-yl)amino)-N,N,N-trimethyl-2-oxoethan-1-aminium]
antioxidant potential (HORAC) compared with gallic acid [2]: equal, or greater than, gallic acid

CCCCOC(=O)C(CC(=O)c1ccccc1NC(=O)CCC)NC(=O)C(CC(=O)c1ccccc1NC(=O)CCC)NC(=O)CCC (centres unmarked) [Compound 5, butyl 2-(2-butyramido-4-(2-butyramidophenyl)-4-oxobutanamido)-4-(2-butyramidophenyl)-4-oxobutanoate]
peak absorbance [3]: around 325 nm
critical wavelength [3]: 355 nm
extinction coefficient ([3]; slope of absorbance vs concentration, in ethanol, at peak absorbance): 4600 M⁻¹ cm⁻¹

CCCCOC(=O)C(CC(=O)c1ccccc1N)NC(=O)C(CC(=O)c1ccccc1N)NC(=O)CCC (centres unmarked) [Compound 4, butyl 4-(2-aminophenyl)-2-(4-(2-aminophenyl)-2-butyramido-4-oxobutanamido)-4-oxobutanoate]
peak absorbance [3]: around 368 nm
critical wavelength [3]: 385 nm
antioxidant potential (HORAC) ([2]; tested at 468 μM, 312 μM and 156 μM, gallic acid as calibrator): 1.8 gallic acid equivalents per mole

Nc1ccccc1C(=O)CC(NC(=O)CCC(=O)O)C(=O)O (centres unmarked) [Compound 42, 4-(2-aminophenyl)-2-(3-carboxypropanamido)-4-oxobutanoic acid]
erythema after UV exposure (skin): significantly reduced erythema
antioxidant potential (HORAC) compared with gallic acid [2]: equal, or greater than, gallic acid

COC(=O)C(CC(=O)c1ccccc1N)NC(=O)C(CC(=O)c1ccccc1N)NC(C)=O (centres unmarked) [Compound 1, methyl 2-(2-acetamido-4-(2-aminophenyl)-4-oxobutanamido)-4-(2-aminophenyl)-4-oxobutanoate] (Ac-[Kyn]-[Kyn]-OMe; configuration not given here)
absorbance upper wavelength limit ([1]; FIG. 1): up to 410 nm
absorbance region (in words) [1]: strong absorbance in the UVA region

CC(=O)NC(CC(=O)c1ccccc1N)C(N)=O (centres unmarked) [Compound 44, 2-acetamido-4-(2-aminophenyl)-4-oxobutanamide]
antioxidant potential (HORAC) compared with gallic acid [2]: equal, or greater than, gallic acid
